Source: ChEMBL document CHEMBL1201862, “PubChem BioAssay data set” (2004)
Several values for one entry are separate records, joined by “and”; a condition that tells them apart may be missing. Equal entries are not always repeated. Activity calls are given as the source filed them.

Columns and labels:
[1] = target: T1, Dual specificity protein phosphatase 6 (Rattus norvegicus, UniProt Q64346); assay: MKP-3 phosphatase inhibitors, primary screen, biochemical, rat enzyme, in vitro (AID 425)
T1 sequence (Q64346 whole entry): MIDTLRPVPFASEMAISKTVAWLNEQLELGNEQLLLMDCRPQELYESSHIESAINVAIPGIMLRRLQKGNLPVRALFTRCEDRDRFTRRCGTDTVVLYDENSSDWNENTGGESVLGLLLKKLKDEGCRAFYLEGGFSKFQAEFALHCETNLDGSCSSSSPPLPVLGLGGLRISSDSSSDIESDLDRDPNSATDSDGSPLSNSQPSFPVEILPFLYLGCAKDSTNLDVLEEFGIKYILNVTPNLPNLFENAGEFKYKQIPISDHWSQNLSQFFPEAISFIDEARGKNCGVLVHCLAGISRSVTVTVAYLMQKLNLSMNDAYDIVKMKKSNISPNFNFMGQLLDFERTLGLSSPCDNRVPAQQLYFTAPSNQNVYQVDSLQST

[2] = target: T2, Polyadenylate-binding protein 1 (Homo sapiens, UniProt P11940); assay: PABP1 MLLE–PAM2 binding inhibitor potency, dose response, biochemical, fluorescence polarization, FITC-PAM2 peptide (AID 602259); format: functional; conditions: read-out: IC50_Mean
T2 sequence (P11940 whole entry): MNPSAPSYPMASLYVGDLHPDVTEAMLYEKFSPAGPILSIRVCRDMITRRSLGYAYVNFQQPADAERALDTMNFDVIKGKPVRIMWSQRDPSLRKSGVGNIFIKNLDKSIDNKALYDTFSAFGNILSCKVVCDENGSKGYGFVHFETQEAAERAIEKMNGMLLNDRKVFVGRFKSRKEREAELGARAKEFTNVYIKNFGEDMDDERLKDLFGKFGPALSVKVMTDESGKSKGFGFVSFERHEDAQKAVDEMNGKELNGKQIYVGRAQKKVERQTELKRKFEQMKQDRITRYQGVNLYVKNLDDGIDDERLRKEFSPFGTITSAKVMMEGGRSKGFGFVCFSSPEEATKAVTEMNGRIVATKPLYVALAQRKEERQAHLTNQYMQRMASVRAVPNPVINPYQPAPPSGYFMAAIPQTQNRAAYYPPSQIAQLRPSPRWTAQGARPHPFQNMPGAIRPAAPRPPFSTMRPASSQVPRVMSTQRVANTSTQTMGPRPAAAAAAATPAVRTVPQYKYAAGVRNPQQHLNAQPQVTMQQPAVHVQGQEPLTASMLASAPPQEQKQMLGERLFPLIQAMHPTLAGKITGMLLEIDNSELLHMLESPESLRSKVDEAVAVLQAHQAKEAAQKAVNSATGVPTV

[3] = target: T3, Dual specificity protein phosphatase 3 (Homo sapiens, UniProt P51452); assay: SAR VHR1 absorbance Assay for In Vitro dose response studies. [Related pubchem assays (depositor defined):AID1654, AID1661, AID1878, AID1992, AID2004]
T3 sequence (P51452 whole entry): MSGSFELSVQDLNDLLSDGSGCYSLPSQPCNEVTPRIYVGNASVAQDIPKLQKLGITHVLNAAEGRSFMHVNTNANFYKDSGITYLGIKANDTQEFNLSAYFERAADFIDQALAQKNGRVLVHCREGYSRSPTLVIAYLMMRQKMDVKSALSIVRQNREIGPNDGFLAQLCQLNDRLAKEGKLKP

[4] = target: Tyrosine-protein phosphatase non-receptor type 11 (Homo sapiens, UniProt Q06124); assay: SHP2 phosphatase inhibition, dose response, selectivity assay for STEP inhibitor project, biochemical (AID 602367); format: functional; conditions: read-out: IC50_Mean
Sequence of Tyrosine-protein phosphatase non-receptor type 11 (Q06124 whole entry): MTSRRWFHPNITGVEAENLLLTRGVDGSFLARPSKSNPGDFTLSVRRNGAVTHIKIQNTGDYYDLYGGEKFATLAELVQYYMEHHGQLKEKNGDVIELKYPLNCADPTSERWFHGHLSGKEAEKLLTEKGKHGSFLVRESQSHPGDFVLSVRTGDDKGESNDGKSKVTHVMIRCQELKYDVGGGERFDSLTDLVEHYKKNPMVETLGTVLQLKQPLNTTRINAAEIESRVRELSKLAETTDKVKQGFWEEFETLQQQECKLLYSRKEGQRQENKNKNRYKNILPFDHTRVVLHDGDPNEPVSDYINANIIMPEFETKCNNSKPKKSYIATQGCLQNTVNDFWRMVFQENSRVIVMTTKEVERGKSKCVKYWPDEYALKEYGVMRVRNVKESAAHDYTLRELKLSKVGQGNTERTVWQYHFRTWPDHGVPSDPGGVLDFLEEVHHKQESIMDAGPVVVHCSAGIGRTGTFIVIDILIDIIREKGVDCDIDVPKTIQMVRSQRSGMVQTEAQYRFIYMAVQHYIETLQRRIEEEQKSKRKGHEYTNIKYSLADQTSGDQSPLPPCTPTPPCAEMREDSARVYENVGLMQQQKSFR

[5] = target: Tyrosine-protein phosphatase non-receptor type 5 (Homo sapiens, UniProt P54829); assay: STEP phosphatase inhibitors, confirmation, biochemical, fluorescence intensity, uHTS hits (AID 602372); format: functional; conditions: read-out: IC50_Mean
Sequence of Tyrosine-protein phosphatase non-receptor type 5 (P54829 whole entry): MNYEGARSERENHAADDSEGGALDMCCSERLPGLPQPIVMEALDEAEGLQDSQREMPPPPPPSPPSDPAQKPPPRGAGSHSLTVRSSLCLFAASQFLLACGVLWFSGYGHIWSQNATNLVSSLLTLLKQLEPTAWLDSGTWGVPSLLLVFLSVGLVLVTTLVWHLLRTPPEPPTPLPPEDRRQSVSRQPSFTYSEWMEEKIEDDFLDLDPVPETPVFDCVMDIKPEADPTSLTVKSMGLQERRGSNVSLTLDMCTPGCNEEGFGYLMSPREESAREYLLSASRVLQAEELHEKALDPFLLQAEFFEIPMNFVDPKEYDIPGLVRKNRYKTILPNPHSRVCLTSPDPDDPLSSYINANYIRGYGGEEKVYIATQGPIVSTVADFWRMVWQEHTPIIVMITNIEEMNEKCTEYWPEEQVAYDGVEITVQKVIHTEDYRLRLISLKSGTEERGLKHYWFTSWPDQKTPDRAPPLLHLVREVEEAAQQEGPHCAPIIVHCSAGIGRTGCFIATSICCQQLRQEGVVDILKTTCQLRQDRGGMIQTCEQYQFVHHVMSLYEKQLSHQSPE

[6] = target: T3, Dual specificity protein phosphatase 3; assay: VHR1 phosphatase inhibitors, biochemical (AID 1878)
[7] = target: T3, Dual specificity protein phosphatase 3; assay: MOA VHR1 Fluorescent secondary assay for identification of redox-state modulating compounds. [Related pubchem assays (depositor defined):AID1654, AID1661, AID1878, AID1957]
[8] = target: T3, Dual specificity protein phosphatase 3; assay: VHR phosphatase inhibition, dose response, selectivity assay for STEP inhibitor project, biochemical (AID 602374); format: functional; conditions: read-out: IC50_Mean
[9] = target: T3, Dual specificity protein phosphatase 3; assay: VHR1 phosphatase inhibitors, primary screen, biochemical, absorbance, uHTS (AID 1654)
[10] = target: T4, Tyrosine-protein phosphatase non-receptor type 7 (Homo sapiens, UniProt P35236); assay: redox-dependent HePTP inhibition, mechanism study, biochemical, fluorescence (AID 2068); format: functional
T4 sequence (P35236 whole entry): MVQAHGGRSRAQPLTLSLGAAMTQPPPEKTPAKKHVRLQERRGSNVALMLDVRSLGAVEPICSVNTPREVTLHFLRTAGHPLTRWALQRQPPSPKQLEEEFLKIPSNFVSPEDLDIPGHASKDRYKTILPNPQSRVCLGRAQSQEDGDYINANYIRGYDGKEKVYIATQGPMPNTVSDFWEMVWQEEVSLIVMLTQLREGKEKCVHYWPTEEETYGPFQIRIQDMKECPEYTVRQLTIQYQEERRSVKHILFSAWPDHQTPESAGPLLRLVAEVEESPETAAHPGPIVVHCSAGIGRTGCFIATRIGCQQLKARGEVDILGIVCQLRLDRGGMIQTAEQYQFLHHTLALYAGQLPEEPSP

[11] = target: T2, Polyadenylate-binding protein 1; assay: PABP1 MLLE–PAM2 interaction inhibitors, dose response, miRNA deadenylation inhibitor project, biochemical, fluorescence polarization, Cy5-PAM2 peptide, secondary (AID 602260); format: functional; conditions: read-out: IC50_Mean
[12] = target: T1, Dual specificity protein phosphatase 6; format: functional
[13] = target: T3, Dual specificity protein phosphatase 3; assay: SAR VHR1 Fluorescent Assay for In Vitro dose response studies. [Related pubchem assays (depositor defined):AID1654, AID1661, AID1878, AID1992, AID2004, AID2070, AID2085]; format: functional
[14] = target: T5, Ubiquitin-conjugating enzyme E2 N (Homo sapiens, UniProt P61088); format: functional;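 further: Dose-response confirmation in a TR-FRET assay detecting UBC13-driven polyubiquitin chain formation, inhibition measured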
T5 sequence (P61088 whole entry): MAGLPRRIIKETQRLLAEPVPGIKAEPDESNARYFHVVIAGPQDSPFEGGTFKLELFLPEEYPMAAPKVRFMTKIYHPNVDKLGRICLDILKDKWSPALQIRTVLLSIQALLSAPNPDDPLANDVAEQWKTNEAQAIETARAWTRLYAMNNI

[15] = Cytotoxicity screening for potential Inhibitors of Bacterial Capsule Biogenesis. [Related pubchem assays (depositor defined):AID488970]; format: functional
[16] = HCT116 cell viability decrease, GSK3B pretreatment – CellTiter-Glo, IC50, dose response (AID 1117339); format: functional; conditions: HCT-116
[17] = tested on: INS1; assay: beta cell apoptosis inhibitors, cytokine rescue, dose response, luminescence, retest (AID 449756); format: functional, cell-based; conditions: Rattus norvegicus;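 further: cell death triggered by IL-1 beta plus TNF-alpha plus IFN-gamma mixture; protective hits raise ATP signal compared with cytokine alone wells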
[18] = CellTiter-Glo luminescent dose response of DLD-1 viability loss (AID 1117352); format: functional
[19] = target: Aryl hydrocarbon receptor (Homo sapiens, UniProt P35869); conditions: Potency;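 further: confirmatory quantitative high-throughput screen measuring activation of the AhR signaling pathway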
Sequence of Aryl hydrocarbon receptor (P35869 whole entry): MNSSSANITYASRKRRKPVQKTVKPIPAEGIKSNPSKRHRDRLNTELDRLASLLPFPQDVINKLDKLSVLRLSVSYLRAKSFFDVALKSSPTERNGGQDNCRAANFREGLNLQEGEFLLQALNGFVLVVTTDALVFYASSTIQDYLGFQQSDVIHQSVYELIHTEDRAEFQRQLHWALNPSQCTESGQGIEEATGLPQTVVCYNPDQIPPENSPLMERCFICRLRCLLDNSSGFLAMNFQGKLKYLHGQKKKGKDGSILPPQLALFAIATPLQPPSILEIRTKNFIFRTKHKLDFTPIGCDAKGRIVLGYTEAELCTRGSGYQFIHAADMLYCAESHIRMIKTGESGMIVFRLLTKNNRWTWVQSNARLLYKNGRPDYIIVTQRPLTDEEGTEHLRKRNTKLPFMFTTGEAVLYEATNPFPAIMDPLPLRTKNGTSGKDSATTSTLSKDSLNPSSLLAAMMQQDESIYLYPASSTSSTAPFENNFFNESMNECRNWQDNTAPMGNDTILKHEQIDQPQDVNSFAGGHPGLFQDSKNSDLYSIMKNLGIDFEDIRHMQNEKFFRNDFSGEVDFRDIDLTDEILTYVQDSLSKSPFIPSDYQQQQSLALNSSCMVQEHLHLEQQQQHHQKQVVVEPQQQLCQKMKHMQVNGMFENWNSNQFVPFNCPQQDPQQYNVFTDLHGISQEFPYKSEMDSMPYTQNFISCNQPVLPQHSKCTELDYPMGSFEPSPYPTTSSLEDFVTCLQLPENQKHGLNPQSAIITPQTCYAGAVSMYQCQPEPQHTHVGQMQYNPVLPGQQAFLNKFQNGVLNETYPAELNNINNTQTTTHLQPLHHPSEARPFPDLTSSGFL

[20] = cytotoxicity toward Colo320 cells – cell-based, CellTiter-Glo luminescence, IC50, dose response (AID 1117334); format: functional; conditions: COLO 320
[21] = RKO cell viability reduction, dose response, CellTiter-Glo luminescence (AID 1117322); format: functional
[22] = target: NACHT, LRR and PYD domains-containing protein 3 (Homo sapiens, UniProt Q96P20); assay: NALP3 inhibitors in yeast, dose response, luminescent (AID 488799); format: functional
Sequence of NACHT, LRR and PYD domains-containing protein 3 (Q96P20 whole entry, the tested form may be a part): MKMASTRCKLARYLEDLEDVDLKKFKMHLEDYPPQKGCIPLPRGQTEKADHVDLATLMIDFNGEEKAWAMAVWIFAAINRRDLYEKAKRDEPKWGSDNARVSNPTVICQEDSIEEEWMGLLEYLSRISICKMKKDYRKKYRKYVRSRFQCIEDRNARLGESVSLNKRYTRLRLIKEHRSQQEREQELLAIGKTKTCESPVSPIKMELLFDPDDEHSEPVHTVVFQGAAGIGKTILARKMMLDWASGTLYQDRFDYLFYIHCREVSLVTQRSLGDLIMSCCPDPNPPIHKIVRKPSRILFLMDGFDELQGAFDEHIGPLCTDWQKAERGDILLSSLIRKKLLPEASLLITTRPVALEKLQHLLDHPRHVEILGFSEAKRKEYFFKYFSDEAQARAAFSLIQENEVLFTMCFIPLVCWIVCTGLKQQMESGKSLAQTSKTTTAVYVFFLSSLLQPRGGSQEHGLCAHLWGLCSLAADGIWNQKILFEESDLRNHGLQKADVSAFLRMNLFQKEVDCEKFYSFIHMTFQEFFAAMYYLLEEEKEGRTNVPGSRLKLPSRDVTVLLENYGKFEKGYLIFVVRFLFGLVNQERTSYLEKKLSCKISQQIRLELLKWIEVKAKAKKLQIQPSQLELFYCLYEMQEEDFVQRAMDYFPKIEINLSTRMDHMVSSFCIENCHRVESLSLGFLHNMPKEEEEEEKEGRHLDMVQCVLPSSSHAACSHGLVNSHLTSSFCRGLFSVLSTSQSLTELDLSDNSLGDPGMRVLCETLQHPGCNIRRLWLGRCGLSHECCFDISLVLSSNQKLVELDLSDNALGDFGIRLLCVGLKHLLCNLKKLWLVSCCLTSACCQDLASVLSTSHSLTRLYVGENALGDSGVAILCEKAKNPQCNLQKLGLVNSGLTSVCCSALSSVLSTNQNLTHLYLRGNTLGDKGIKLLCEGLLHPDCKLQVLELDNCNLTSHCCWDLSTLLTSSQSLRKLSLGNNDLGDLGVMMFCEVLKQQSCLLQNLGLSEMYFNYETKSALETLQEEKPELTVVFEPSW

[23] = SNU-C1 cell viability reduction, dose response, CellTiter-Glo luminescence (AID 1117323); format: functional, cell-based
[24] = cytotoxicity toward HCT116 cells – cell-based, CellTiter-Glo luminescence, IC50, dose response (AID 1117332); format: functional; conditions: HCT-116
[25] = cytotoxicity toward HT-29 cells – cell-based, CellTiter-Glo luminescence, IC50, dose response (AID 1117330); format: functional
[26] = Concentration-dependent survival of SW480 colon cancer line, luminescence detection with CellTiter-Glo, half-maximal inhibitory concentration (AID 1117338); format: functional
[27] = target: G-protein coupled receptor 55 (Homo sapiens, UniProt Q9Y2T6); assay: GPR55 agonists via beta-arrestin recruitment, primary screen, imaging, U2OS cells, beta-arrestin-GFP redistribution (AID 1961); format: functional
Sequence of G-protein coupled receptor 55 (Q9Y2T6 whole entry): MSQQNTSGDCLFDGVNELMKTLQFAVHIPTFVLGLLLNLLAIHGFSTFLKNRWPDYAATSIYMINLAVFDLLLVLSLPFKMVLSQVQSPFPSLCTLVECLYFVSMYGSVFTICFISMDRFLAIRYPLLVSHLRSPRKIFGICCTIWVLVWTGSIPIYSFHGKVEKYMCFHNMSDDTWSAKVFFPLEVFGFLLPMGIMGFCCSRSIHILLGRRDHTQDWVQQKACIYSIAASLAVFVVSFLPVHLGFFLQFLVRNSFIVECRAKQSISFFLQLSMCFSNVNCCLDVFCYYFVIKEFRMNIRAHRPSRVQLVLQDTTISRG

COc1cc(C(=S)N2CCCCC2)ccc1O
IC50 [1]: > 158 µM (not active)
IC50 [2]: > 66 µM (inactive)
IC50 [3]: 0.958 µM (active)
IC50 [4]: 1.2 µM (active)
IC50 [5]: 5.11 µM (active)
IC50 [6]: 3.34 µM (active)
IC50 [7]: 127 nM (active) and 5.55 µM (active)
IC50 [8]: 0.331 µM (active)
IC50 [9]: 1.68 µM (active)
IC50 [10]: 84.6 nM (active) and 3.16 µM (active)
IC50 [11]: > 66 µM (inactive)
IC50 [12]: > 100 µM (inactive)
IC50 [13]: 366 nM (active) and > 100 µM (inactive)

Cc1cc(C)c(NC(=O)C[N+](C)(C)CC(O)COc2cccc3ccccc23)c(C)c1 (configuration not stated)
IC50 [14]: > 20 µM (inactive)
CC50 [15]: 15.6 µM (active)

O=C(Nc1ccc(Cl)cc1)Nc1ccc(Cl)c(Cl)c1 [TRICLOCARBAN]
IC50 [16]: 0.362 µM (active)
AC50 [17]: 3.69 µM (active)
IC50 [18]: 0.323 µM (active)
AC50 [19]: 14.1 µM (inconclusive)
IC50 [20]: 0.362 µM (active)
IC50 [21]: 0.288 µM (active)
IC50 [22]: 1.49 µM (active)
IC50 [23]: 0.335 µM (active)
IC50 [24]: 0.228 µM (active)
IC50 [25]: 0.383 µM (active)
IC50 [26]: 0.897 µM (active)

CCN(CC)S(=O)(=O)c1ccc(OC)c(NC(=O)C(C)Oc2ccc3c(C)cc(=O)oc3c2)c1 (configuration not stated)
EC50 [27]: 16.4 µM (inactive)
